The record followed here is ChEMBL document CHEMBL4814005, “Pragmatic recruitment of memantine as the capping group for the design of HDAC inhibitors: A preliminary attempt to unravel the enigma of glioblastoma” (Eur J Med Chem, 2021).

pIC50: −log10 of the molar value. Calls of active or inactive are those of the source. The calls are words filed in the database; no cut-off is given here.

Data set [1] deals with T1, Histone deacetylase 8 (Homo sapiens, UniProt Q9BY41).
T1 sequence (Q9BY41 whole entry): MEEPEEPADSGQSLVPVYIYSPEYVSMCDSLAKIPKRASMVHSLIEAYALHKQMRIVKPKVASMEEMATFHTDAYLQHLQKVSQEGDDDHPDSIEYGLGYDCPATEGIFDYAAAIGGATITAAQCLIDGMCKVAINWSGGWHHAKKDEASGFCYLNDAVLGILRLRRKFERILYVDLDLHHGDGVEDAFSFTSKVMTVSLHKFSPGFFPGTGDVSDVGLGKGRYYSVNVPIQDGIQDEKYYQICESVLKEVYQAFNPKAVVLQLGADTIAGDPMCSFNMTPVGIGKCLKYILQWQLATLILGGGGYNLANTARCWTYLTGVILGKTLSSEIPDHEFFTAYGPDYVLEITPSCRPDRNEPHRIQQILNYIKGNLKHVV
The data set can be described thus: Inhibition of human recombinant HDAC8 using [RHKK(Ac)] fluorogenic substrate.

Data set [2] deals with T2, Protein deacetylase HDAC6 (Homo sapiens, UniProt Q9UBN7).
T2 sequence (Q9UBN7 whole entry): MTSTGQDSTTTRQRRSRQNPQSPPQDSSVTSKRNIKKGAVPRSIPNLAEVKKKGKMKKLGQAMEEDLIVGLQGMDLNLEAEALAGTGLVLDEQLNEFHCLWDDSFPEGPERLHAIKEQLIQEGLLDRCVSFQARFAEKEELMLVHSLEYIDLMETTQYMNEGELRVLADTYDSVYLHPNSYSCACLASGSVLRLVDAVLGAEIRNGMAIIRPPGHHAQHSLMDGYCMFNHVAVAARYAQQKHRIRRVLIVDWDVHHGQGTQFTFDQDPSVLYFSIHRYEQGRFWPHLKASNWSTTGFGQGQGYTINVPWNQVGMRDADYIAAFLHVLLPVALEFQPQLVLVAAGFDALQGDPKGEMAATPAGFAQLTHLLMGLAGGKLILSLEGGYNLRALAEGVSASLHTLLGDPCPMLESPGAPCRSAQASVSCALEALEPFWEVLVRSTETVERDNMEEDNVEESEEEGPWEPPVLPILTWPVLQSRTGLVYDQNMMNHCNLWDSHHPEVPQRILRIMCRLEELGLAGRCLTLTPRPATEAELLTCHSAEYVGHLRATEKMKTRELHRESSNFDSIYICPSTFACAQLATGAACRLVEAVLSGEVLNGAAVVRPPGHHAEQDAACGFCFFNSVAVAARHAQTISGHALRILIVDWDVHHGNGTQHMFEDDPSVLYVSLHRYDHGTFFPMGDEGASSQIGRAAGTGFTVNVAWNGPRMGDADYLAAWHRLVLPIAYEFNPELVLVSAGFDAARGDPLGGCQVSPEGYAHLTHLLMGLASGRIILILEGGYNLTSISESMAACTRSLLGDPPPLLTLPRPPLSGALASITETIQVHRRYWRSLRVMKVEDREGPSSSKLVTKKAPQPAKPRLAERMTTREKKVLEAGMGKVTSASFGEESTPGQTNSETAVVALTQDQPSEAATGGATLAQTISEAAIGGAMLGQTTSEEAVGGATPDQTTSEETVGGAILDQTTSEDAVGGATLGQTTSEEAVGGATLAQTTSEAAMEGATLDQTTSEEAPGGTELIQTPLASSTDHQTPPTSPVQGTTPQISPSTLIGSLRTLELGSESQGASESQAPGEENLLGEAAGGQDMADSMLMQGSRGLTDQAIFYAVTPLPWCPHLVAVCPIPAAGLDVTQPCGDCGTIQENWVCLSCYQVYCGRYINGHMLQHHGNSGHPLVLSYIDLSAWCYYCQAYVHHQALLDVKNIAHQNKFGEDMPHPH
The data set can be described thus: Inhibition of human recombinant HDAC6 expressed in baculovirus infected insect cells using [RHKK(Ac)] fluorogenic substrate.

Data set [3] addresses Histone deacetylase 3 (Homo sapiens, UniProt O15379). The data set can be described thus: Inhibition of human recombinant HDAC3 using [RHKK(Ac)] fluorogenic substrate.
Data set [4] concerns U-87 MG. The experiment in a line: Antiproliferation activity against human U-87 MG cells assessed as growth inhibition measured after 1 hr by MTT assay. Format: functional, cell-based, U-87MG ATCC. (Tetrazolium dyes change colour on reduction, which living cells bring about.)
Data set [5] has as its target Histone deacetylase 1 (Homo sapiens, UniProt Q13547). The experiment in a line: Inhibition of human recombinant HDAC1 expressed in baculovirus infected insect cells using [RHKK(Ac)] fluorogenic substrate.
The subject of data set [6] is U-87 MG. The experiment in a line: Antiproliferation activity against human U-87 MG cells assessed as growth inhibition at 10 uM after 3 days by MTT assay. Format: functional, U-87MG ATCC. Conditions: 72 h, time 3 day.
For data set [7], the system named is U-87 MG. The data set can be described thus: Antiproliferation activity against human U-87 MG cells assessed as decrease in cell growth at 30 uM incubated for 2 days by MTT assay. In kind it is functional, cell-based. The conditions noted are these: U-87MG ATCC, time 2.0 day.
Data set [8] relates to U-87 MG. The data set can be described thus: Antiproliferation activity against human U-87 MG cells assessed as decrease in cell growth at 30 uM after 3 days by MTT assay. Conditions: time 3 day. Also noted: scale not given: the % may be the effect or the level left. Format: functional, U-87MG ATCC.
Data set [9] deals with A 172. The data set can be described thus: Induction of apoptosis in human A 172 cells assessed as upregulation of activated caspase 3 protein at 3 uM after 24 hrs by western blot analysis. In kind it is functional, cell-based. For orientation: Immunoblotting shows a protein as a band on a membrane.
The subject of data set [10] is A 172. The experiment in a line: Induction of apoptosis in human A 172 cells assessed as upregulation of cleaved PARP at 3 uM after 24 hrs by western blot analysis. Format: functional, cell-based.
Data set [11] deals with A 172. The experiment in a line: Induction of cell cycle arrest in human A 172 cells assessed as accumulation at S phase upto 10 uM by propidium iodide staining based flow cytometric analysis. Format: functional. Conditions: dose microM <=10.
Data set [12] deals with A 172. The experiment in a line: Induction of cell cycle arrest in human A 172 cells assessed as accumulation at G0/G1 phase by propidium iodide staining based flow cytometric analysis. Format: functional. The conditions noted are these: dose microM <=10. On the technique in general: Flow cytometry measures light scatter and fluorescence of single cells or particles in a stream.

Data set [13] relates to A 172. The data set can be described thus: Induction of cell cycle arrest in human A 172 cells assessed as accumulation at G2/M phase by propidium iodide staining based flow cytometric analysis. Format: functional. Conditions: dose microM <=10.
For data set [14], the system named is A 172. The experiment in a line: Induction of cell cycle arrest in human A 172 cells assessed as sub-G1 population upto 10 uM after 2 days by flow cytometry/PI staining assay. Format: functional, cell-based. Conditions: dose microM <=10, time 2.0 day.
The subject of data set [15] is Glioblastoma cell line. The data set can be described thus: Antiproliferation activity against TMZ resistant human glioblastoma cell P1S assessed as growth inhibition at 3 uM by MTT assay. In kind it is functional.
Data set [16] relates to U-87 MG. The experiment in a line: Antiproliferation activity against TMZ resistant human U-87 MG R-50 cells assessed as growth inhibition at 3 uM by MTT assay. Format: functional, cell-based. The conditions noted are these: U-87MG ATCC.
The nature of data set [17]: Permeability of compound by PAMPA-BBB assay.

Sequence of Histone deacetylase 1 (Q13547 whole entry): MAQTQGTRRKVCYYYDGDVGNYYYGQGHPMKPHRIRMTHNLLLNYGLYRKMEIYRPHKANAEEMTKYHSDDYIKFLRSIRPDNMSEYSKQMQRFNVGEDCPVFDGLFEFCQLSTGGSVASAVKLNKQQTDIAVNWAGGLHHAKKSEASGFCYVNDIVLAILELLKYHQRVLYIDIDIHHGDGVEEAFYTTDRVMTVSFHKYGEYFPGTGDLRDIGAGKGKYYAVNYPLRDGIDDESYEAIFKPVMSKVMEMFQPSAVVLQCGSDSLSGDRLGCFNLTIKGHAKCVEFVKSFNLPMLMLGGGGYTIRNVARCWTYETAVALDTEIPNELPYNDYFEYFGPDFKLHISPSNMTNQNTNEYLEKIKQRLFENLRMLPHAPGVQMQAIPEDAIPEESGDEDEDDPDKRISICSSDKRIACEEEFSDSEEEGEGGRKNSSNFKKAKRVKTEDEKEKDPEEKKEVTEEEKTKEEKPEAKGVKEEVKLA
Sequence of Histone deacetylase 3 (O15379 whole entry): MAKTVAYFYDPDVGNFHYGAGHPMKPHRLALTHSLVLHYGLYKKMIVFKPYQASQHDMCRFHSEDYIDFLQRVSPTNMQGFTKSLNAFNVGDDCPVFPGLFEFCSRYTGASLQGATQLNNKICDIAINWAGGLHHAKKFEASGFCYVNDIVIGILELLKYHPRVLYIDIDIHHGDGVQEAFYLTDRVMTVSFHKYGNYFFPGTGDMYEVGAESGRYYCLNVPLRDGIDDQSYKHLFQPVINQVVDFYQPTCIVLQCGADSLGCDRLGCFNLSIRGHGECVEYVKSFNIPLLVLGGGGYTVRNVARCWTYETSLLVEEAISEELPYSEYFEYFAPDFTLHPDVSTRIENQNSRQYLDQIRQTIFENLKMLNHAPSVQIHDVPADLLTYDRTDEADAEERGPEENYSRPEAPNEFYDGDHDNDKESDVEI

The pIC50 is −log10 of the IC50, conventionally taken in molar units. For `CC12CC3CC(C)(C1)CC(NC(=O)CCCCCCCCC(=O)NO)(C3)C2`, the pIC50 in data set [1] was 6.15; in data set [2], 6.57; in data set [3], 5.46; in [4] it was 5.02; in [5], 5.28.

For the molecule `CC12CC3CC(C)(C1)CC(NCc1ccc(C(=O)NO)cc1)(C3)C2`, the figures for the pIC50 in data set [1], in data set [2] and in data set [4] were 5.06, 5.49 and 4.34, respectively.

For orientation: inhibition means the percentage by which the read-out fell short of the control. Regarding `CC12CC3CC(C)(C1)CC(NCc1ccc(NCc4ccc(C(=O)NO)cc4)cc1)(C3)C2`, the inhibition at 10 µM in data set [6] came out at 90%. Moreover, the pIC50 was 4.82 in [1], 7.11 in data set [2], 5.62 in data set [4] and 4.96 in data set [5].

On to `CC12CC3CC(C)(C1)CC(NC(=O)CCCCCCC(=O)NO)(C3)C2`, for which the pIC50 in [1] was 6.08; in [2], 6.44; in [3], 4.90; in data set [4], 4.73; in data set [5], 5.35.

For the molecule `CC12CC3CC(C)(C1)CC(N)(C3)C2.Cl` [MEMANTINE HYDROCHLORIDE], the outcome in data set [7], in data set [9] and in [10] was inactive. Further, the Activity in data set [8] stood at 50%; in [11], 10%; in [12], 57%; in data set [13] it was 28%. Besides, the pIC50 in [4] was 4.63.

Consider `CC12CC3CC(C)(C1)CC(NS(=O)(=O)c1cccc(/C=C/C(=O)NO)c1)(C3)C2`, for which the inhibition at 10 µM in [6] was found to be 90%. The pIC50 was 6.25 in data set [1]; 7.03 in data set [2]; 5.54 in [3]; 5.66 in data set [4]; 5.76 in data set [5].

In the case of `CC12CC3CC(C)(C1)CC(NC(=O)CCCCCCCC(=O)NO)(C3)C2`, the negative-log IC50 (pIC50) in data set [1] is 5.97; in [2] it was 6.64; in data set [3] it was 5.38; in [4], 4.47; in [5] it was 5.55.

Regarding `CC12CC3CC(C)(C1)CC(NS(=O)(=O)c1ccc(/C=C/C(=O)NO)cc1)(C3)C2`, the inhibition at 10 µM in [6] turned out to be 90%. Also, the pIC50 was 5.13 in data set [1]; 6.99 in [2]; 5.99 in data set [3]; 5.70 in data set [4]; 6.02 in [5]. Also, the result in [9], in data set [10] and in [14] was Active. Further, the Activity entry in data set [12] and in data set [13] was “Dose-Dependent Effect” in each case.

With `CC12CC3CC(C)(C1)CC(NCc1cccc(NC(=O)CCCCCCC(=O)NO)c1)(C3)C2`, the inhibition at 10 µM in data set [6] was found to be 90%. The pIC50 in data set [1] is 6.15; in data set [2], 7.22; in data set [3] it was 6.19; in data set [4], 5.85; in data set [5], 6.17.

For the molecule `CC12CC3CC(C)(C1)CC(NCc1ccc(/C=C/C(=O)NO)cc1)(C3)C2`, the result in data set [15] and in data set [16] was inactive. The inhibition at 10 µM in data set [6] is 90%. For the same molecule, the pIC50 in data set [1] is 5.99; in data set [2] it was 7.11; in data set [3], 5.55; in data set [4], 5.73. Moreover, the outcome in data set [9], in [10] and in data set [14] was Active. Also, the Activity result in data set [12] and in [13] was “Dose-Dependent Effect” in each case.

For the molecule `CC12CC3CC(C)(C1)CC(NC(=O)CCCCCC(=O)NO)(C3)C2`, the negative logarithm of the IC50 (pIC50) in data set [1] was 5.38; in data set [2] it was 6.69; in [4], 4.79; in data set [5], 4.79.

As for `O=C(CCCCCCC(=O)Nc1ccccc1)NO` [VORINOSTAT], the permeability in [17] is 1 10^-5 cm/s.
